Data reported in patent US20250177366A1, “COMPOSITIONS AND METHODS FOR ALLEVIATING PAIN AND REDUCING ADVERSIVENESS OF STIMULI” (UNIVERSITY OF WASHINGTON, priority 2021, published 2025).

What was measured:
larval zebrafish = test: Light/dark preference (phototaxis) assay; type: in vivo, Zebrafish (Danio rerio); details: for light/dark preference: last two minutes of each trial, last four trials
Procedure: Following this, whether the effects of AS1 were restricted to somatosensation or were generalizable to other aversive stimuli were tested. Thus, the effects of AS1 on light/dark preference were tested. Zebrafish larvae prefer white light environments to dark environments and this preference is inhibited by anxiolytics, analagous to studies in rodents (Lau et al., Proc. Natl. Acad. Sci. U.S.A 2011; 108:2581-2586; Burgess et al., Curr. Biol. 2010; 20:381-386). To measure light/dark preference, larval zebrafish were placed in a square arena and given the choice between a bright white light and total darkness, and the number of larvae on each side was quantified at 30 second intervals. Five 4-minute trials were performed, where the light and dark sides of the arena were reversed between trials. […] Given the precise control over stimulus luminosity in this assay, the effects of altering the intensity of the dark stimulus were explored next. In this gradient version of the phototaxis assay, larval zebrafish were given the choice between a bright white environment and one of six potential shades of darkness, ranging from light gray to solid black. […] This implies that the valence of non-painful noxious stimuli is precisely encoded in an intensity-dependent manner, and that AS1 exerts its effects in proportion to the intensity of the stimulus.
Light/dark preference (phototaxis) assay. In the light/dark preference assay, randomly-selected 6 dpf larval zebrafish (N of 30 to 40) were carefully pipetted onto a 10 cm square petri dish using a 10 mL pipette pump equipped with a glass wide-bored Pasteur pipet. As much E2 media as possible was carefully removed using the same pipet. For single incubation experiments, 30 mL of 1× solutions of the control or test chemical was added to each petri dish, and fish were incubated for 10 minutes at 28.5° C. For double incubation experiments, 15 mL of 1× solutions containing control (DMSO) or test chemicals was added to the larvae-containing petri dish. Following a ten-minute incubation period, 15 mL of the second incubation solution (1× control or test chemical +/−2× AS1) was added to the petri dish, and the fish were incubated for a second ten minute block. The final concentration of DMSO in all solutions was 1%. In all double-incubation experiments, the final concentration of AS1 was 2.5 μM. These petri dishes were then positioned over a horizontally-oriented computer monitor displaying a PowerPoint presentation. For standard light/dark preference assays, a blank white slide was initially presented for one minute, after which the presentation would automatically advance to a slide in which half of the display was black. The petri dish with larvae was positioned such that exactly half was directly over the dark side, and the other half was directly over the light side. After four minutes, the presentation automatically advanced to a slide in which the black and white halves switched places. A total of five four-minute trials, with the dark/light halves automatically switching position between trials, were recorded. For the gradient phototaxis assay, experiments were performed identically, except that the “dark” half of the powerpoint presentation was one of six shades of gray.
In all experiments, an initial still frame of video was taken during the minute where the blank slide was presented in order to quantify the total number of fish in the experiment. Following this, still frames were taken at 30 second intervals for each trial ([…]), and the number of fish present in the light half of the arena were counted. To generate the graphs that looked at swimming patterns over time in a trial (e.g., FIG. 3D), the average percentage of fish in the light at each time point (T=0, T=30, etc.) was calculated across all five trials. […]

[1] = system: T1, 5-HT2a serotonin receptor (Homo sapiens); test: PDSP radioligand binding assay; details: PDSP screen
T1 construct: Psychoactive Drug Screening Program (PDSP)
Procedure: (§1) To further seek out the molecular target(s) of AS1, the resources of the Psychoactive Drug Screening Program (PDSP) (Besnard et al., Nature. 2012; 492:215-220) were utilized. […] While not being limited to mechanism or theory, to verify whether these receptors were involved in mediating the effects of AS1, the thermal preference assay following incubation in drugs that specifically acted upon these receptors was employed. […] Nor did treatment with the 5-HT2 s antagonist LY266097 replicate or reverse the effects of AS1 (FIG. 6). Incubation in either the specific sigma-1 receptor agonist (PRE-084) or antagonist (BD1063) similarly yielded no effects (FIG. 6).

sigma-1 receptor = molecular target: T2, sigma-1 receptor (Homo sapiens, UniProt Q99720); test: PDSP radioligand binding assay; details: PDSP screen
T2 construct: Psychoactive Drug Screening Program (PDSP)
Procedure: as §1

T2 sequence (Q99720 whole entry, species assumed): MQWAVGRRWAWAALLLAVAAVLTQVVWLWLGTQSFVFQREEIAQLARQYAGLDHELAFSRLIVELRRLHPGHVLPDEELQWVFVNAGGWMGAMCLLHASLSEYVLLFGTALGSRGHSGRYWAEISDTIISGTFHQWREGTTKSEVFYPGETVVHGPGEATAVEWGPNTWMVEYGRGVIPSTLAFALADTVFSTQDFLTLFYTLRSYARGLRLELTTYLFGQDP
T1 sequence (P41595 whole entry): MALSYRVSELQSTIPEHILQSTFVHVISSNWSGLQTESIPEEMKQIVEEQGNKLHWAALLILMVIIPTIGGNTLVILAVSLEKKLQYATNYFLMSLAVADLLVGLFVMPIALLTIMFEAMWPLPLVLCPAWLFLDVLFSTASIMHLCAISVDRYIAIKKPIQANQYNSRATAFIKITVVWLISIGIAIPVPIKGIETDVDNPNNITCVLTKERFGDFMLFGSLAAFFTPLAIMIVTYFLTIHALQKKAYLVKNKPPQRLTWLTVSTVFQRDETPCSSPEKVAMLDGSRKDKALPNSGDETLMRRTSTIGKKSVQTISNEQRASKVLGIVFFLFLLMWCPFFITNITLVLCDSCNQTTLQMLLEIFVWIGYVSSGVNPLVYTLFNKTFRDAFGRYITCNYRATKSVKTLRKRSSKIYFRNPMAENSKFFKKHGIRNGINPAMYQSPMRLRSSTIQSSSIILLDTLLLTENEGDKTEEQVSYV

For `CC(C)c1ccc(C(=O)Nc2ccncc2)cc1` [AS1, 4-propan-2-yl-N-pyridin-4-ylbenzamide], the light/dark preference (larval zebrafish; 1 μM AS1) was “significantly prefer the light side of the arena”, the “gradient phototaxis: choice between bright white (shade 1) and darker shades 2-7” value (larval zebrafish; 2.5 μM AS1) was “increasingly prefer the contrasting dark shade” and the light/dark preference (larval zebrafish; 2.5 μM AS1) was “significantly prefer the dark”. For the same compound, the “light/dark preference, dose dependence” value (larval zebrafish; AS1-treated vs vehicle-treated larvae) was “reversed light/dark preference in a dose-dependent manner”, the radioligand binding interaction [1] was “potentially weak interactions” and the radioligand binding interaction (sigma-1 receptor) was “potentially weak interactions”.
